The values below come from the OligoGym collection.

HELM strings list units from the 5' end as sugar, base in round brackets, then linkage (d deoxyribose, r ribose, m 2'-O-methyl, p phosphodiester). Strings are as the collection lists them; they lack the last nucleoside at the 3' end of the tested compound. [moe] = 2'-O-(2-methoxyethyl) (MOE); [sp] = phosphorothioate linkage; [m5C] = 5-methylcytosine

The target of this series is GFAP. Briefly: mouse, dose not given. Conditions: ASO.
“RNA1{[moe](T)[sp].[moe](T)p.[moe](G)p.[moe](G)p.d([m5C])[sp].d(A)[sp].d(G)[sp].d(T)[sp].d(A)[sp].d(T)[sp].d(T)[sp].d(A)[sp].d([m5C])[sp].d([m5C])[sp].[moe](T)p.[moe]([m5C])p.[moe](T)p.[moe](A)[sp].[moe]([m5C])}$$$$ (last 3' nucleoside missing)” registered a 3 h FOB score of 1 score 0-7.
Next, “RNA1{[moe](T)[sp].[moe](T)p.[moe](G)p.[moe](T)p.[moe](G)[sp].d(A)[sp].d(T)[sp].d(T)[sp].d(T)[sp].d(T)[sp].d([m5C])[sp].d([m5C])[sp].d([m5C])[sp].[moe]([m5C])p.[moe](G)p.[moe](T)[sp].[moe]([m5C])}$$$$ (last 3' nucleoside missing)”: 2 score 0-7.
The substance “RNA1{[moe](T)[sp].[moe](T)p.[moe](G)p.[moe](T)p.[moe](G)p.[moe](A)p.d(T)[sp].d(T)[sp].d(T)[sp].d(T)[sp].d([m5C])[sp].d([m5C])[sp].d([m5C])[sp].d([m5C])[sp].d(G)[sp].d(T)[sp].[moe]([m5C])p.[moe](T)[sp].[moe](T)}$$$$ (last 3' nucleoside missing)” showed a 3 h FOB score of 4 score 0-7.
Next, “RNA1{[moe](T)[sp].[moe](T)p.[moe](G)p.[moe](T)p.[moe]([m5C])[sp].d(T)[sp].d(T)[sp].d(T)[sp].d(A)[sp].d(T)[sp].d(T)[sp].d(T)[sp].d(T)[sp].[moe](T)p.[moe]([m5C])p.[moe]([m5C])[sp].[moe](T)}$$$$ (last 3' nucleoside missing)”: 0 score 0-7; “RNA1{[moe](T)[sp].[moe](T)p.[moe](G)p.[moe](T)p.[moe]([m5C])[sp].d(T)[sp].d(T)[sp].d(T)[sp].d(A)[sp].d(T)[sp].d(T)[sp].d(T)[sp].d(T)[sp].d(T)[sp].d([m5C])[sp].[moe]([m5C])p.[moe](T)p.[moe]([m5C])[sp].[moe](A)}$$$$ (last 3' nucleoside missing)”: 1 score 0-7.
The same measure for “RNA1{[moe](T)[sp].[moe](T)p.[moe](G)p.[moe](T)p.[moe]([m5C])p.[moe](T)p.d(T)[sp].d(T)[sp].d(A)[sp].d(T)[sp].d(T)[sp].d(T)[sp].d(T)[sp].d(T)[sp].d([m5C])[sp].d([m5C])[sp].[moe](T)p.[moe]([m5C])[sp].[moe](A)}$$$$ (last 3' nucleoside missing)”: 4 score 0-7; for “RNA1{[moe](T)[sp].[moe](T)p.[moe](G)p.[moe](T)p.d(G)[sp].d(A)[sp].d(T)[sp].d(T)[sp].d(T)[sp].d(T)[sp].d([m5C])[sp].d([m5C])[sp].d([m5C])[sp].d([m5C])[sp].[moe](G)p.[moe](T)p.[moe]([m5C])p.[moe](T)[sp].[moe](T)}$$$$ (last 3' nucleoside missing)”: 0 score 0-7.
Substance “RNA1{[moe](T)[sp].[moe](T)p.[moe](G)p.[moe](T)p.d([m5C])[sp].d(T)[sp].d(T)[sp].d(T)[sp].d(A)[sp].d(T)[sp].d(T)[sp].d(T)[sp].d(T)[sp].d(T)[sp].[moe]([m5C])p.[moe]([m5C])p.[moe](T)p.[moe]([m5C])[sp].[moe](A)}$$$$ (last 3' nucleoside missing)” gave a 3 h FOB score of 2 score 0-7.
Next, “RNA1{[moe](T)[sp].[moe](T)p.[moe](T)p.[moe](A)p.[moe](T)[sp].d(T)[sp].d(T)[sp].d(T)[sp].d(T)[sp].d([m5C])[sp].d([m5C])[sp].d(T)[sp].d([m5C])[sp].[moe](A)p.[moe](G)p.[moe]([m5C])[sp].[moe](G)}$$$$ (last 3' nucleoside missing)”: 1 score 0-7.
Turning to “RNA1{[moe](T)[sp].[moe](T)p.[moe](T)p.[moe](A)p.[moe](T)[sp].d(T)[sp].d(T)[sp].d(T)[sp].d(T)[sp].d([m5C])[sp].d([m5C])[sp].d(T)[sp].d([m5C])[sp].d(A)[sp].d(G)[sp].[moe]([m5C])p.[moe](G)p.[moe](A)[sp].[moe]([m5C])}$$$$ (last 3' nucleoside missing)”, the 3 h FOB score amounted to 2 score 0-7.
Substance “RNA1{[moe](T)[sp].[moe](T)p.[moe](T)p.[moe](A)p.[moe](T)p.[moe]([m5C])p.d(T)[sp].d(G)[sp].d(T)[sp].d(G)[sp].d([m5C])[sp].d(T)[sp].d(T)[sp].d(T)[sp].d(A)[sp].d(G)[sp].[moe](T)p.[moe](G)[sp].[moe](A)}$$$$ (last 3' nucleoside missing)” registered a 3 h FOB score of 3 score 0-7.
The same measure for “RNA1{[moe](T)[sp].[moe](T)p.[moe](T)p.[moe](A)p.d(T)[sp].d(T)[sp].d(T)[sp].d(T)[sp].d(T)[sp].d([m5C])[sp].d([m5C])[sp].d(T)[sp].d([m5C])[sp].d(A)[sp].[moe](G)p.[moe]([m5C])p.[moe](G)p.[moe](A)[sp].[moe]([m5C])}$$$$ (last 3' nucleoside missing)”: 0 score 0-7; for “RNA1{[moe](T)[sp].[moe](T)p.[moe](T)p.[moe](G)p.[moe](A)[sp].d(G)[sp].d(A)[sp].d(T)[sp].d(A)[sp].d(T)[sp].d([m5C])[sp].d(T)[sp].d(T)[sp].[moe](G)p.[moe](T)p.[moe](G)[sp].[moe](A)}$$$$ (last 3' nucleoside missing)”: 3 score 0-7; for “RNA1{[moe](T)[sp].[moe](T)p.[moe](T)p.[moe](G)p.[moe](A)p.d(G)[sp].d(A)[sp].d(T)[sp].d(A)[sp].d(T)[sp].d([m5C])[sp].d(T)[sp].d(T)[sp].d(G)[sp].d(T)[sp].[moe](G)p.[moe](A)p.[moe]([m5C])[sp].[moe]([m5C])}$$$$ (last 3' nucleoside missing)”: 3 score 0-7.
As for “RNA1{[moe](T)[sp].[moe](T)p.[moe](T)p.[moe](G)p.[moe](G)p.[moe]([m5C])p.d(A)[sp].d(G)[sp].d(T)[sp].d(A)[sp].d(T)[sp].d(T)[sp].d(A)[sp].d([m5C])[sp].d([m5C])[sp].d(T)[sp].[moe]([m5C])p.[moe](T)[sp].[moe](A)}$$$$ (last 3' nucleoside missing)”, the 3 h FOB score came out at 0 score 0-7.
Regarding “RNA1{[moe](T)[sp].[moe](T)p.[moe](T)p.[moe](G)p.[moe](G)p.d(T)[sp].d(G)[sp].d([m5C])[sp].d(T)[sp].d(T)[sp].d(T)[sp].d(T)[sp].d(G)[sp].d([m5C])[sp].d([m5C])[sp].[moe]([m5C])p.[moe]([m5C])p.[moe]([m5C])[sp].[moe](T)}$$$$ (last 3' nucleoside missing)”, the 3 h FOB score is 2 score 0-7.
The same measure for “RNA1{[moe](T)[sp].[moe](T)p.[moe](T)p.[moe](G)p.[moe](G)p.d([m5C])[sp].d(A)[sp].d(G)[sp].d(T)[sp].d(A)[sp].d(T)[sp].d(T)[sp].d(A)[sp].d([m5C])[sp].d([m5C])[sp].[moe](T)p.[moe]([m5C])p.[moe](T)[sp].[moe](A)}$$$$ (last 3' nucleoside missing)”: 1 score 0-7.
Next, “RNA1{[moe](T)[sp].[moe](T)p.[moe](T)p.[moe](G)p.[moe](T)[sp].d([m5C])[sp].d(T)[sp].d(T)[sp].d(T)[sp].d(A)[sp].d(T)[sp].d(T)[sp].d(T)[sp].[moe](T)p.[moe](T)p.[moe]([m5C])[sp].[moe]([m5C])}$$$$ (last 3' nucleoside missing)”: 0 score 0-7; “RNA1{[moe](T)[sp].[moe](T)p.[moe](T)p.[moe](G)p.[moe](T)[sp].d([m5C])[sp].d(T)[sp].d(T)[sp].d(T)[sp].d(A)[sp].d(T)[sp].d(T)[sp].d(T)[sp].d(T)[sp].d(T)[sp].[moe]([m5C])p.[moe]([m5C])p.[moe](T)[sp].[moe]([m5C])}$$$$ (last 3' nucleoside missing)”: 0 score 0-7; “RNA1{[moe](T)[sp].[moe](T)p.[moe](T)p.[moe](G)p.[moe](T)p.[moe]([m5C])p.d(T)[sp].d(T)[sp].d(T)[sp].d(A)[sp].d(T)[sp].d(T)[sp].d(T)[sp].d(T)[sp].d(T)[sp].d([m5C])[sp].[moe]([m5C])p.[moe](T)[sp].[moe]([m5C])}$$$$ (last 3' nucleoside missing)”: 0 score 0-7.
The same measure for “RNA1{[moe](T)[sp].[moe](T)p.[moe](T)p.[moe](G)p.d(G)[sp].d([m5C])[sp].d(A)[sp].d(G)[sp].d(T)[sp].d(A)[sp].d(T)[sp].d(T)[sp].d(A)[sp].d([m5C])[sp].[moe]([m5C])p.[moe](T)p.[moe]([m5C])p.[moe](T)[sp].[moe](A)}$$$$ (last 3' nucleoside missing)”: 1 score 0-7.
Regarding “RNA1{[moe](T)[sp].[moe](T)p.[moe](T)p.[moe](G)p.d(T)[sp].d([m5C])[sp].d(T)[sp].d(T)[sp].d(T)[sp].d(A)[sp].d(T)[sp].d(T)[sp].d(T)[sp].d(T)[sp].[moe](T)p.[moe]([m5C])p.[moe]([m5C])p.[moe](T)[sp].[moe]([m5C])}$$$$ (last 3' nucleoside missing)”, the 3 h FOB score came out at 1 score 0-7.
Next, “RNA1{[moe](T)[sp].[moe](T)p.[moe](T)p.[moe](T)p.[moe](G)[sp].d(T)[sp].d(G)[sp].d(T)[sp].d(G)[sp].d(T)[sp].d(G)[sp].d(A)[sp].d(G)[sp].d(T)[sp].d(A)[sp].[moe](A)p.[moe](G)p.[moe](A)[sp].[moe](A)}$$$$ (last 3' nucleoside missing)”: 7 score 0-7.
“RNA1{[moe](T)[sp].[moe](T)p.[moe](T)p.[moe](T)p.d(G)[sp].d(A)[sp].d(G)[sp].d(A)[sp].d(T)[sp].d(A)[sp].d(T)[sp].d([m5C])[sp].d(T)[sp].d(T)[sp].[moe](G)p.[moe](T)p.[moe](G)p.[moe](A)[sp].[moe]([m5C])}$$$$ (last 3' nucleoside missing)” yielded a 3 h FOB score of 3 score 0-7.
The same measure for “RNA1{[moe](T)[sp].[moe](T)p.[moe](T)p.[moe]([m5C])p.[moe](T)[sp].d([m5C])[sp].d(T)[sp].d([m5C])[sp].d([m5C])[sp].d(T)[sp].d(G)[sp].d(T)[sp].d(T)[sp].d(T)[sp].d([m5C])[sp].[moe](A)p.[moe](G)p.[moe]([m5C])[sp].[moe](A)}$$$$ (last 3' nucleoside missing)”: 3 score 0-7; for “RNA1{[moe](T)[sp].[moe]([m5C])p.[moe](A)p.[moe](G)p.[moe](T)p.d(T)[sp].d(T)[sp].d(T)[sp].d([m5C])[sp].d([m5C])[sp].d(T)[sp].d([m5C])[sp].d([m5C])[sp].d(A)[sp].d(G)[sp].[moe]([m5C])p.[moe](A)p.[moe](G)[sp].[moe]([m5C])}$$$$ (last 3' nucleoside missing)”: 2 score 0-7.
